Laboratory results: patent US10214507B2, “Carbazole-containing amides, carbamates, and ureas as cryptochrome modulators” (Reset Therapeutics, Inc., priority 2014, dated 2019)

How the values were obtained:
[1] = test system: cortisone-induced insulin resistance in Sprague Dawley rats; experiment: Cortisone induced insulin resistance in rats; assay type: in vivo, rat; conditions: cortisone 30 mg/kg sc + 30 mg/kg po
Experimental: Animals were dosed with cortisone (30 mg/kg sc qd) in combination with test compounds for 6 days and then terminated 27 hours after the final dose of cortisone. A reference standard (Mifepristone) was also included. Cortisone 21-acetate (Sigma C-3130) was supplied by RenaSci and administered using a dose volume of 5 ml/kg via the subcutaneous route as a fine suspension in 1% methylcellulose. […] Mifepristone (Sigma M8046) was provided by RenaSci.
Glucose and insulin determinations were performed on plasma samples obtained from a tail vein bleed taken after a 12 h fast, approximately 27 h after the last cortisone dose. Animals were then terminated and a terminal (cardiac) blood sample taken from which plasma was prepared.
Thirty four male Sprague Dawley rats (weight range 200-250 g) were ordered from Charles River, Margate, Kent, UK. […] Subsequently, animals underwent a 3 day baseline period during which they were dosed once daily with vehicle at t=0 h (07:00). […] Body weight was recorded immediately before dosing began at 07:00 (t=0 h).
On Day 6 of dosing rats were fasted for 12 h beginning at 22:30 (timed to coincide with the Day 7 termination). […] At 10:30 on Day 7, 27 h after the final dose of cortisone, a blood sample (300 μl) was taken from the lateral tail vein into tubes containing EDTA (Sarstedt 16.444). The blood was centrifuged and resultant plasma aliquot stored at −75° C. The animals were euthanized by CO2 asphyxiation followed by cervical dislocation. Terminal blood (approximately 10 ml) was collected by cardiac puncture into tubes containing EDTA (Sarstedt 5 ml 32.332) and then centrifuged and plasma stored at −75° C. The tail vein plasma was analyzed for glucose (n=2) using a commercial clinical reagent (Thermoelectron Infinity glucose reagent (TR15421) and for insulin (n=1) using the Mercodia ultrasensitive rat insulin rat ELISA (10-1251-10).
Plasma glucose and insulin were analyzed by robust regression or general linear model with treatment as a factor and bleeding order and baseline body weight as covariates. A log transformation was used if appropriate. Appropriate multiple comparison tests (two-tailed) were used to determine significant differences from the vehicle group and from the Cortisone group. P<0.05 was considered to be statistically significant.

[2] = test system: stable U20S reporter cells harboring Per2-dLuc; experiment: Per2 assay for evaluating the potency of test compounds (circadian luciferase reporter); assay type: cell-based; conditions: amplitude of Per2-dLuc luminescence vs log concentration
How it was run: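 U2OS Per2-dLuc cells grown 48 h at 37 °C, then synchronized with 5 μM forskolin plus 1 mM luciferin and dosed with 3-fold compound dilutions.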

[3] = test system: core clock gene mRNAs in livers of ICR mice; experiment: Four day study, liver clock gene mRNA by RT-qPCR, ICR mice; assay type: in vivo, mouse; conditions: 50 mg/kg PO BID 4 days; for liver Per2 expression: ICR mice, ZT6
Experimental: Male ICR mice (weighing 30-35 g), obtained from Charles River Laboratories (Hollister, CA), were used for the experiment following at least 3 days of acclimation. Mice were dosed with vehicle (WFI or 10% Kolliphor) or compound (50 mg/kg, dose volume 5 mL/kg, PO) for 4 days BID (twice a day), beginning in the afternoon of the first day. The last dose of compound or vehicle was administered on the morning of harvest. On the day of harvest (6 hours following the final dose), mice were euthanized by CO2 asphyxiation and 50 mg of liver tissue was excised and placed in a tube containing 500 μl of RNA later.
E.Z.N.A.® HP Total RNA Isolation Kits (R6812-01 and the protocol described in the Manual, Revised 2010) were utilized to prepare and isolate RNA from the liver samples. To prepare the RNA samples, 10-30 mg of sample was removed from RNA-Later and placed in a 1.5 ml microfuge tube. GTC lysis buffer (700 μl) was added to the tissue, which was homogenized with a rotor-stator homogenizer (e.g. Tissue-Tearor, Model #985370 BioSpec Products with 4.5 mm probe, Cat. #985370-04), and then centrifuged at full speed (>13,000×g) for 5 minutes. The cleared supernatant was transferred by pipetting to a DNA Clearance Column Pre-inserted in a 2 mL Collection Tube. The assembled column was centrifuged at 13,000×g for 1 minute, and the flow-through was saved. An equal volume (700 μl) of 70% ethanol was added to the lysate and mixed. The sample was then applied to a HiBind RNA spin column placed into a 2 ml collection tube, which was centrifuged at 10,000×g for 60 seconds at room temperature. RNA Wash Buffer I (250 μl) was added by pipetting directly onto a new HiBind RNA column inserted in a 2 ml collection tube. The assembled column was centrifuged at 10,000×g for 60 seconds. The RNA column was placed into a new 2 ml collection tube. DNase I stock solution is pipetted (75 μl) directly onto the surface of the HiBind RNA resin in each column (Using DNAse Digestion with RNase Free DNase Set (E1091): for each HiBind RNA column, the DNase I stock solution was prepared as followed: E.Z.N.A.® DNase I Digestion Buffer 73.5μl, RNase Free DNase I (20 Kunitz/μl) 1.5 μl=Total Volume 75 μl.). The column with bound RNA was incubated at room temperature (25-30° C.) for 15 minutes. RNA Wash Buffer I (500 μl) was added to the column and placed on a bench top for 2 minutes. After centrifuging at 10,000×g for 60 seconds, discarding the flow-through, 500 μl of RNA Wash Buffer II was added and centrifuged at 10,000×g for 60 seconds. Another 500 μl of RNA Wash Buffer II was added and the column assembly was centrifuged at 10,000×g for 60 seconds. The column was centrifuged for 2 minutes at maximum speed to completely dry the HiBind matrix. The column was placed in a clean 1.5 ml microcentrifuge tube and 40-70 μl of molecular biology grade water is added. After sitting for 1 minute, the column was centrifuged for 2 minutes at maximum speed to elute the RNA. The isolated RNA was collected into the collection tube.
RediPlate 96 RiboGreen RNA Quantification Kit (Invitrogen) RediPlate standard curve was prepared by transferring 20 μl reconstituted RNA standard to a RediPlate well reconstituted in 180 μl RediPlate TE buffer. For liver RNAs prepared from 30-100 mg of tissue using a kit similar to the Omega Bio-Tek HP Total RNA Kit and eluted in RNAse-free water in a volume of 50 μl (microliters), 5 μl of the total RNA is diluted in 195 μl of RediPlate TE buffer (1:40 dilution of RNA), mix. After transferring 5 μl to RediPlate well reconstituted in 195 μl TE buffer and incubating 10 min. at RT, Fluorescence Intensity of wells with standards and samples were read in a Tecan M200 with Excitation set at 480 nm and Emission set at 520 nm with the gain set to −70%. Alternatively, one can use the FlexStation 3 with Ex 488 nm and Em 525 nm and a Cutoff of 515 nm.

C57/Bl6J DIO mice [4] = experiment: Increasing dosages of Compound 72 for 7 days in diet-induced obesity mouse model; assay type: in vivo; conditions: positive control 30 mg/kg QD PO 7 days
From the text: (§1) Male C57/Bl6J DIO mice were obtained from The Jackson Laboratory (Sacramento, Calif.). […] Animals were accustomed to these conditions for at least 2 weeks before experimentation and used at approximately 24 weeks of age.
(§2) Significance was accepted when p<0.05.
Male C57/Bl6J DIO mice were obtained from The Jackson Laboratory (Sacramento, Calif.). […] Animals were accustomed to these conditions for at least 2 weeks before experimentation and used at approximately 26 weeks of age.

[5] = test system: db/db mouse model of type II diabetes; conditions: db/db mice, positive control 30 mg/kg QD PO 7 days
Experimental: Male db/db mice homozygous for Lepr^db (6 weeks of age), were obtained from The Jackson Laboratory (Bar Harbor, Me.). Mice were group housed on a normal light/dark cycle (lights on: 07:00-19:00 h) with ad libitum access to a standard pelleted mouse diet and water. Animals were accustomed to these conditions for 2 weeks before experimentation. […] At 10:30 pm on the evening prior to endpoint measurement, mice were placed into clean cages and given free access to water, but not food for a period of 12 hours before the fasting blood glucose measurement. On the final day of the study, animals were dosed as normal, and then underwent a tail cut injury 2 hours prior to measurement of fasting blood glucose, to allow recovery from any stress the procedure might cause. Fasting blood glucose (FBG) was assessed from the animals at 10:30 am using an AlphaTRAK glucometer (Abbott Laboratories, USA). Following the FBG measurement blood was collected from each mouse, using a tail milking technique, into a capillary tube. Capillary tubes were centrifuged in a hematocrit (BD Triac 0200) and the resultant plasma transferred to an eppendorff. This sample, labelled as t=Ohr, was frozen at −80° C. to allow later measurement of insulin. At 11:30 am each animal was dosed with 0.5 g/kg of glucose, then blood glucose was measured at t=15, 30, 60, 90 and 120 minutes after glucose load. At the end of the OGTT blood was collected for a t=2 hr insulin determination as described above.
Fasting blood glucose values and glucose measurements taken during the OGTT were averaged and graphed (GraphPad Prism, GraphPad Software, La Jolla, Calif.). The area under the curve (AUC) was calculated for each individual animal. Plasma insulin levels were determined using an Ultrasensitive Insulin ELISA (ALPCO, Salem, N.H.). […] Insulin data was also represented in GraphPad Prism format. Statistical analysis was performed using one-way ANOVA followed by the appropriate post-test. Significance was accepted when p<0.05. Data are presented as mean and S.E.M.

C57/Bl6J DIO mice [6] = experiment: 7 day dosing in diet-induced obesity (DIO) mouse model; assay type: in vivo
From the text: as §1, §2

## CC#C[C@]1(O)CC[C@H]2[C@@H]3CCC4=CC(=O)CCC4=C3[C@@H](c3ccc(N(C)C)cc3)C[C@@]21C [Mifepristone, mifepristone, reference compound]
[1]; insulin resistant rats
  HOMA-IR: 29.99+/−2.54 units
[1]; rats
  fasted plasma insulin: 3.62 ± 0.29 ng/mL
[1]; rats, unit printed as ng/mL
  fasted plasma glucose: 7.43 ± 0.27 ng/mL

## COC1CCCN(CC(O)Cn2c3ccc(F)cc3c3cc(F)ccc32)C1=O (stereo not shown) [Compound 57, 1-(3-(3,6-difluoro-9H-carbazol-9-yl)-2-hydroxypropyl)-3-methoxypiperidin-2-one]
[2]
  EC50: 0.329 µM
[3]; ICR mice liver
  increase in Bmal1 mRNA at ZT6: ≥ 2 fold
[3]
  liver Per2 expression: suppression

## CN(CCOc1ccc(CC2SC(=O)NC2=O)cc1)c1ccccn1 (stereo not shown) [Rosiglitazone, reference compound]
C57/Bl6J DIO mice [4]
  fasting blood glucose: 161.1 ± 8.06 mg/dL
[5]
  HOMA-IR: 50.58+/−3.52 units
  fasting blood glucose: 280.4 ± 13.66 mg/dL
  plasma insulin at t=0: 3.05 ± 0.14 ng/mL
  plasma insulin at t=2 hr: 2.28 ± 0.08 ng/mL
C57/Bl6J DIO mice [6]; 30 mg/kg PO 7 days
  HOMA-IR: 24.60+/−1.42 units
  plasma insulin at t=0: 2.70 ± 0.12 ng/mL
  plasma insulin at t=2 hr: 2.30 ± 0.06 ng/mL
C57/Bl6J DIO mice [6]; positive control 30 mg/kg PO 7 days
  fasting blood glucose: 153.9 ± 5.05 mg/dL

## O=C1C2CCC(C2)N1CC(O)Cn1c2ccc(F)cc2c2cc(F)ccc21 (stereo not shown) [Compound 48, 2-(3-(3,6-difluoro-9H-carbazol-9-yl)-2-hydroxypropyl)-2-azabicyclo[2.2.1]heptan-3-one]
[2]
  EC50: 0.12 µM
[3]; ICR mice liver
  Cry2 transcripts: decrease
  increase in Bmal1 mRNA at ZT6: 8 fold
[3]
  liver Per2 expression: suppression
